The record followed here is patent US8697692B2, “Pyrrolo [3,2-c] pyridine-4-one 2-indolinone protein kinase inhibitors” (Shanghai Hengrui Pharmaceutical Co., Ltd., priority 2006, dated 2014).

One assay deals with T1, EGFR kinase (Homo sapiens, UniProt P00533).
T1 construct: purchased Cell signaling technology #7908
The assay can be described thus: EGFR Kinase Assay. The class given is biochemical. Particulars: 20 μM ATP, 25° C. 45 minutes. The procedure: EGFR kinase activity in vitro was measured as described below:
a. Wash Buffer (PBS-T Buffer): 1×PBS (137 mM NaCl, 2.7 mM KCl, 4.3 mM Na2HPO4, 1.4 mM KH2PO4, adjust the pH to 7.2) and 0.05% Tween-20.
(§1) b. 1% Bovine Serum Albumin (BSA, Calbiochem #136593) in PBS-T.
c. Stop Buffer: 50 mM EDTA, pH 8.0
d. DELFIA® Europium-labeled Anti-mouse IgG (PerkinElmer Life Sciences #AD0124)
e. DELFIA® Enhancement Solution (PerkinElmer Life Sciences #1244-105)
f. DELFIA® Streptavidin coated, 96-well, yellow plate (PerkinElmer Life Sciences #AAAND-0005)
g. EGFR kinase (supplied in 50 mM Tris-HCl (pH 8.0), 100 mM NaCl, 5 mM DTT, 15 mM reduced glutathione and 20% glycerol. Cell signaling technology #7908).
(§2) h. 10 mM ATP solution (Cell signaling technology #9804).
i. PTP1B (Tyr66) Biotinylated Peptide (Cell signaling technology #1325).
(§3) j. Phospho-Tyrosine Mouse mAb (P-Tyr-100) (Cell signaling technology #9411).
(§4) k. HTScan™ Tyrosine Kinase Buffer (4×)
(§5) (Cell signaling technology #9805).
(§6) l. 1.25 M DTT (1000×) (Cell signaling technology).
(§7) The following protocol was used:
1. Dilute test compound with DMSO to the desired final assay concentration.
2. Dilute 6 μM substrate peptide (Tyr66) 1:1 with dH2O, add 15 μl to every assay.
3. Immediately transfer EGFR enzyme from −80° C. to ice. Allow enzyme to thaw on ice.
4. Take 3 μg EGFR enzyme to the enzyme tube.
(§8) 5. Add 10 μl of DTT (1.25 M) to 2.5 ml of 4×HTScan™ Tyrosine Kinase Buffer (240 mM HEPES pH 7.5, 20 mM MgCl2, 20 mM MnCl2, 12 μM Na3VO4) to make DTT/Kinase buffer.
(§9) 6. Transfer 0.75 ml of DTT/Kinase buffer to each enzyme tube to make 4× reaction cocktail. Add 7.5 μl 4× reaction cocktail to every assay.
7. Add 4 μl ATP (10 mM) to 496 μl dH2O, take 7.5 μl for every assay.
Final Assay Conditions for a 30 μl Reaction
(§10) Incubate reaction tube at 25° C. for 45 minutes. 9. Add 30 μl/assay stop buffer (50 mM EDTA, pH 8.0) to stop the reaction. 10. Transfer 25 μl of each reaction and 75 μl dH2O/well to a 96-well streptavidin coated plate and incubate, with shaking at room temperature for 60 minutes. 11. Wash three times with 200 μl/well PBS-T buffer. Pat plate on paper towel to remove excess liquid. 12. Dilute primary antibody, Phospho-Tyrosine mAb (P-Tyr-100), 1:1000 in PBS-T buffer with 1% BSA. Add 100 μl diluted primary antibody to each well. 13. Incubate, with shaking at room temperature for 60 minutes. 14. Wash as described above in step 11. 15. Dilute Europium labeled anti-mouse IgG 1:500 in PBS-T buffer with 1% BSA. Add 100 μl diluted antibody to each well. 16. Incubate, with shaking at room temperature for 30 minutes. 17. Wash five times with 200 μl/well PBS-T buffer. Pat plate on paper towel to remove excess liquid. 18. Add 100 μl/well DELFIA® Enhancement Solution. 19. Incubate, with shaking at room temperature for 5 minutes. 20. Detect 615 nm fluorescence emission with appropriate Time-Resolved Plate Reader.
(§11) Calculate the inhibition rate: IR (%)=100−100*(X−B)/(N−B)
(§12) X=the fluorescence value of the well contained test compound
(§13) The IC50 value can be derived from the IRs of compounds at different concentration gradients.

In another assay the target is T2, HER-2/ErbB2 kinase (Homo sapiens, UniProt P04626).
T2 construct: purchased Invitrogen corporation #PV3366
T2 sequence (P04626 23-1255): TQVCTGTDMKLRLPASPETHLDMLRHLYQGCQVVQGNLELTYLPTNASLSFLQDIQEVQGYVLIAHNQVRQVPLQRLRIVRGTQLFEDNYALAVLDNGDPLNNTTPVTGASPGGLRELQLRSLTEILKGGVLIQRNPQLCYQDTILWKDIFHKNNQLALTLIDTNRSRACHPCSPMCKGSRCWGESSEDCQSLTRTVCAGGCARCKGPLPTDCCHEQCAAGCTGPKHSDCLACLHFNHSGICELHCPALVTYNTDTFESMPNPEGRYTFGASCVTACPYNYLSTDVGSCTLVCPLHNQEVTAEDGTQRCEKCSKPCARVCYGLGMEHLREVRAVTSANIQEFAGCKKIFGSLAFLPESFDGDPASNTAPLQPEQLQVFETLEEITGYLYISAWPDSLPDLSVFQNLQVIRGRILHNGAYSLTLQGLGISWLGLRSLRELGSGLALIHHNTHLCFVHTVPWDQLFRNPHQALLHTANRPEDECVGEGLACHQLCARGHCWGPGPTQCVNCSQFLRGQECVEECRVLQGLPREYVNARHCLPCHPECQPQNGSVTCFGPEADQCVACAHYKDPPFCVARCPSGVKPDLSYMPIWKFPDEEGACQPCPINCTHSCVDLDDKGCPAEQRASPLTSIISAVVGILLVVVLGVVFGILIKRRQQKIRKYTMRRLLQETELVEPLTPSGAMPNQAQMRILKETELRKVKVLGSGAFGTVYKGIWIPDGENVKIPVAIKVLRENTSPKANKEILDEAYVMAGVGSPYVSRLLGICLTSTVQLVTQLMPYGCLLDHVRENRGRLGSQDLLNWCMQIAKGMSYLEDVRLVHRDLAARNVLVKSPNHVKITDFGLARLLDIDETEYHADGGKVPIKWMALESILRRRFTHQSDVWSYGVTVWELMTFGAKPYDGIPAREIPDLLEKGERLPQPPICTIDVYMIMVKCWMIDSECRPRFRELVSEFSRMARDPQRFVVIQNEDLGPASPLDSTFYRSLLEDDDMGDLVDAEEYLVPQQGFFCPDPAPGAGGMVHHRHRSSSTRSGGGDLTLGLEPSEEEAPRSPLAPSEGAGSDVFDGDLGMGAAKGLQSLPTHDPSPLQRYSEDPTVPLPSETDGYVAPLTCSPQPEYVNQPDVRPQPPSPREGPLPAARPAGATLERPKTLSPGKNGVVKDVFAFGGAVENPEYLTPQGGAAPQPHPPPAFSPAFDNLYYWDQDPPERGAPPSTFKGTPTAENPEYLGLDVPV
As to the kind of experiment: HER-2 Kinase Assay (ELISA). The conditions noted are these: 20 μM ATP, 25° C. 60 minutes. In kind it is biochemical. The procedure: An enzyme linked immunosorbent assays (ELISA) was conducted to measure the kinase activity of HER-2 in vitro.
a. Wash Buffer (PBS-T Buffer): 1×PBS (137 mM NaCl; 2.7 mM KCl, 4.3 mM Na2HPO4, 1.4 mM KH2PO4, adjust the pH to 7.2) and 0.05% Tween-20.
as §1
c. Stop Buffer: 50 mM EDTA, pH 8.0.
d. DELFIA® Europium-labeled Anti-mouse IgG (PerkinElmer Life Sciences #AD0124).
e. DELFIA® Enhancement Solution (PerkinElmer Life Sciences #1244-105).
f. DELFIA® Streptavidin coated, 96-well, yellow plate (PerkinElmer Life Sciences #AAAND-0005).
g. HER-2/ErbB2 kinase (Invitrogen corporation #PV3366).
as §2
i. FLT3 (Tyr589) Biotinylated Peptide (Cell signaling technology #1305).
as §3, §4, §5, §6, §7
1. Dilute test compound with DMSO to the desired final assay concentration. Add 1 μl test compound for every assay, to the negative control.
2. Dilute 6 μM substrate peptide (Tyr589) 1:1 with dH2O, add 15 μl to every assay.
3. Immediately transfer HER-2 enzyme from −80° C. to ice. Allow enzyme to thaw on ice.
4. Take 4.5 μg HER-2 enzyme to the enzyme tube.
as §8, §9
7. Add 4 μl ATP (10 mM) to 496 μl dH2O, take 7.5 μl for every assay. Final Assay Conditions for a 30 μl Reaction
as §10, with “60” for “45”
as §11, §12, §13

T1 sequence (P00533 25-1210): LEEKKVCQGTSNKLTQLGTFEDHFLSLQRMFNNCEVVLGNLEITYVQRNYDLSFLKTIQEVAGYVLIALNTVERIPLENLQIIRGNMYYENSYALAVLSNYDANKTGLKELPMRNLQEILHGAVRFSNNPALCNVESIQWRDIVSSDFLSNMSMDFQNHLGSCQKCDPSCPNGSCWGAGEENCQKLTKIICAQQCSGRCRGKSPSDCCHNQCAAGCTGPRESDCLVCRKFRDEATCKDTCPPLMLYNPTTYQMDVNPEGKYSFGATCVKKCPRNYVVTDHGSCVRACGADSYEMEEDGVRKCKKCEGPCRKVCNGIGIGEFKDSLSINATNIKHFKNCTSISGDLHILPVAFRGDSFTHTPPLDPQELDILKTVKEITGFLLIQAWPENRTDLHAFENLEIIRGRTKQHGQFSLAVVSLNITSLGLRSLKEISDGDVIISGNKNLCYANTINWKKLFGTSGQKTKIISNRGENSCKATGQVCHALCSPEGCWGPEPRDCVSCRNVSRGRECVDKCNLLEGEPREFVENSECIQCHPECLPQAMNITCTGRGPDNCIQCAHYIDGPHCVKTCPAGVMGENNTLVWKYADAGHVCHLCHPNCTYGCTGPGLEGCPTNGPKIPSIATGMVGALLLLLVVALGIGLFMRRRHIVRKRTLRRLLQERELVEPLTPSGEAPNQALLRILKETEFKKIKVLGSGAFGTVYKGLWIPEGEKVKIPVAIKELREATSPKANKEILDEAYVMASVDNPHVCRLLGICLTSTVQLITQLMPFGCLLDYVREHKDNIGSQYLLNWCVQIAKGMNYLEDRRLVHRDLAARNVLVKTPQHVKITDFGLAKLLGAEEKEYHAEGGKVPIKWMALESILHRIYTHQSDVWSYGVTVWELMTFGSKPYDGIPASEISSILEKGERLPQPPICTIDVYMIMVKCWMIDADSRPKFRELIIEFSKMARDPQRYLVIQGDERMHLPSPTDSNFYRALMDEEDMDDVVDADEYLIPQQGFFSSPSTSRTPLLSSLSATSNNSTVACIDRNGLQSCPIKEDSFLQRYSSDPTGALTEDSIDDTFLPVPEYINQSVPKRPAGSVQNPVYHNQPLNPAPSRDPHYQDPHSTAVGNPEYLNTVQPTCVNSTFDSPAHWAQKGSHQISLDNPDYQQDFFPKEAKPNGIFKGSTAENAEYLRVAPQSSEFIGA

On EGFR kinase, `CCN(CC)CCN1CCc2[nH]c(/C=C3\C(=O)Nc4cccc(Br)c43)c(C)c2C1=O` [Example 30, 2-(4-Bromo-2-oxo-1,2-dihydro-indol-3-ylidenemethyl)-5-(2-diethylamino-ethyl)-3-methyl-1,5,6,7-tetrahydro-pyrrolo[3,2-c]pyridin-4-one] registered an IC50 of 4.95 µM.
Compound `CCN(CC)CCN1CCc2[nH]c(/C=C3\C(=O)Nc4ccc(OC)cc43)c(C)c2C1=O` [Example 35, 5-(2-Diethylamino-ethyl)-2-(5-methoxy-2-oxo-1,2-dihydro-indol-3-ylidenemethyl)-3-methyl-1,5,6,7-tetrahydro-pyrrolo[3,2-c]pyridin-4-one] returned a 50% inhibitory concentration (IC50) against EGFR kinase of 3.32 µM.
Turning to `CCN(CC)CCN1CCc2[nH]c(/C=C3\C(=O)Nc4cccc(C5CCNCC5)c43)c(C)c2C1=O` [Example 31, 5-(2-Diethylamino-ethyl)-3-methyl-2-(2-oxo-4-piperidin-4-yl-1,2-dihydro-indol-3-ylidenemethyl)-1,5,6,7-tetrahydro-pyrrolo[3,2-c]pyridin-4-one], the IC50 at EGFR kinase was determined as 0.21 µM; against HER-2/ErbB2 kinase, 0.98 µM.
In the case of `Cc1c(/C=C2\C(=O)Nc3cccc(C4CCNCC4)c32)[nH]c2c1C(=O)N(CCN1CCOCC1)CC2` [Example 52, 3-Methyl-5-(2-morpholin-4-yl-ethyl)-2-(2-oxo-4-piperidin-4-yl-1,2-dihydro-indol-3-ylidenemethyl)-1,5,6,7-tetrahydro-pyrrolo[3,2-c]pyridin-4-one], the IC50 at HER-2/ErbB2 kinase was 8.32 µM.
Regarding `CCN(CC)CCN1CCc2[nH]c(/C=C3\C(=O)Nc4cccc(-c5cccc(Cl)c5F)c43)c(C)c2C1=O` [Example 36, 2-[4-(3-Chloro-2-fluoro-phenyl)-2-oxo-1,2-dihydro-indol-3-ylidenemethyl]-5-(2-diethylamino-ethyl)-3-methyl-1,5,6,7-tetrahydro-pyrrolo[3,2-c]pyridin-4-one], on EGFR kinase, the IC50 worked out at 0.18 µM.
`CCN(CC)CCN1CCc2[nH]c(/C=C3\C(=O)Nc4cccc(CCO)c43)c(C)c2C1=O` [Example 37, 5-(2-Diethylamino-ethyl)-2-[4-(2-hydroxy-ethyl)-2-oxo-1,2-dihydro-indol-3-ylidenemethyl]-3-methyl-1,5,6,7-tetrahydro-pyrrolo[3,2-c]pyridin-4-one] yielded a half-inhibitory concentration (IC50) against EGFR kinase of 2.89 µM.
At HER-2/ErbB2 kinase, `Cc1c(/C=C2\C(=O)Nc3cccc(-c4cccc(F)c4F)c32)[nH]c2c1C(=O)N(CCN1CCCC1)CC2` [Example 59, 2-[4-(2,3-Difluoro-phenyl)-2-oxo-1,2-dihydro-indol-3-ylidenemethyl]-3-methyl-5-(2-pyrrolidin-1-yl-ethyl)-1,5,6,7-tetrahydro-pyrrolo[3,2-c]pyridin-4-one] registered an IC50 of 0.72 µM.
On to `Cc1c(/C=C2\C(=O)Nc3cccc(CCO)c32)[nH]c2c1C(=O)N(CCN1CCOCC1)CC2` [Example 42, 2-[4-(2-Hydroxy-ethyl)-2-oxo-1,2-dihydro-indol-3-ylidenemethyl]-3-methyl-5-(2-morpholin-4-yl-ethyl)-1,5,6,7-tetrahydro-pyrrolo[3,2-c]pyridin-4-one], for which the IC50 on HER-2/ErbB2 kinase was determined as 41.1 µM.
On to `CCN(CC)CCN1CCc2[nH]c(/C=C3\C(=O)Nc4cccc(-c5ccc(Cl)cc5F)c43)c(C)c2C1=O` [Example 34, 2-[4-(4-Chloro-2-fluoro-phenyl)-2-oxo-1,2-dihydro-indol-3-ylidenemethyl]-5-(2-diethylamino-ethyl)-3-methyl-1,5,6,7-tetrahydro-pyrrolo[3,2-c]pyridin-4-one], for which the IC50 against EGFR kinase stood at 0.94 µM.
Same read-out and setting: with `Cc1c(/C=C2\C(=O)Nc3ccc(Br)cc32)[nH]c2c1C(=O)N(CCN1CCCC1)CC2` [Example 40, 2-(5-Bromo-2-oxo-1,2-dihydro-indol-3-ylidenemethyl)-3-methyl-5-(2-pyrrolidin-1-yl-ethyl)-1,5,6,7-tetrahydro-pyrrolo[3,2-c]pyridin-4-one] the figure was 0.76 µM.
On to `Cc1c(/C=C2\C(=O)Nc3ncnc(Nc4ccc(F)c(Cl)c4)c32)[nH]c2c1C(=O)N(CCN1CCOCC1)CC2` [Example 24, 4-(3-Chloro-4-fluoro-phenylamino)-5-[3-methyl-5-(2-morpholin-4-yl-ethyl)-4-oxo-4,5,6,7-tetrahydro-1H-pyrrolo[3,2-c]pyridine-2-ylmethylenene]-5,7-dihydro-pyrrolo[2,3-d]pyrimidin-6-one], for which the IC50 came out at 0.31 µM against EGFR kinase and 0.83 µM at HER-2/ErbB2 kinase.
Take `CCN(CC)CCN1CCc2[nH]c(/C=C3\C(=O)Nc4cccc(-c5cccc(F)c5F)c43)c(C)c2C1=O` [Example 39, 5-(2-diethylamino-ethyl)-2-[4-(2,3-difluoro-phenyl)-2-oxo-1,2-dihydro-indol-3-ylidenemethyl]-3-methyl-1,5,6,7-tetrahydro-pyrrolo[3,2-c]pyridin-4-one]: the 50% inhibitory concentration (IC50) on EGFR kinase came to 0.34 µM; on HER-2/ErbB2 kinase, 0.27 µM.
In the same order, the values of `CCN(CC)CCN1CCc2[nH]c(/C=C3\C(=O)Nc4ncnc(Nc5ccc(F)c(Cl)c5)c43)c(C)c2C1=O` [Example 12, 4-(3-Chlor O-4-fluoro-phenylamino)-5-[5-(2-diethylamino-ethyl)-3-methyl-4-oxo-4,5,6,7-tetrahydro-1H-pyrrolo[3,2-c]pyridine-2-ylmethylene]-5,7-dihydro-pyrrolo[2,3-d]pyrimidin-6-one] are 0.06 µM and 0.09 µM.
Turning to `Cc1c(/C=C2\C(=O)Nc3ncc(Br)cc32)[nH]c2c1C(=O)N(CCN1CCOCC1)CC2` [Example 50, 2-(5-Bromo-2-oxo-1,2-dihydro-pyrrolo[2,3-b]pyridin-3-ylidenemethyl)-3-methyl-5-(2-morpholin-4-yl-ethyl)-1,5,6,7-tetrahydro-pyrrolo[3,2-c]pyridin-4-one], the IC50 against EGFR kinase came out at 0.51 µM.
